The numbers were not newly measured in US4937073A, “Reformed vetiver oil and vetiverol, process for preparing the same, and perfumery composition comprising the same” (Kao Corporation, priority 1988, dated 1990), which cites them from elsewhere.

Like-named read-outs stand apart in the source and are kept apart here.

By pKa is commonly meant the negative logarithm of the acid dissociation constant. As for `O=C(O)C(O)C(O)C(=O)O` (centres unmarked) [tartaric acid], the pKa was 2.82. Further, the pKa (listed as Tartaric acid) is listed as 1.04.
